According to ChEMBL document CHEMBL1147620, “Estrogen receptor ligands. Part 1: The discovery of flavanoids with subtype selectivity” (Bioorg Med Chem Lett, 2004):

Assays:
Estrogen receptor beta = Estrogen receptor beta (Homo sapiens, UniProt Q92731)
Description: Binding affinity against human estrogen receptor beta (ER beta) in competitive binding assay

Estrogen receptor = biological target: T1, Estrogen receptor (Homo sapiens, UniProt P03372)
T1 sequence (P03372 whole entry): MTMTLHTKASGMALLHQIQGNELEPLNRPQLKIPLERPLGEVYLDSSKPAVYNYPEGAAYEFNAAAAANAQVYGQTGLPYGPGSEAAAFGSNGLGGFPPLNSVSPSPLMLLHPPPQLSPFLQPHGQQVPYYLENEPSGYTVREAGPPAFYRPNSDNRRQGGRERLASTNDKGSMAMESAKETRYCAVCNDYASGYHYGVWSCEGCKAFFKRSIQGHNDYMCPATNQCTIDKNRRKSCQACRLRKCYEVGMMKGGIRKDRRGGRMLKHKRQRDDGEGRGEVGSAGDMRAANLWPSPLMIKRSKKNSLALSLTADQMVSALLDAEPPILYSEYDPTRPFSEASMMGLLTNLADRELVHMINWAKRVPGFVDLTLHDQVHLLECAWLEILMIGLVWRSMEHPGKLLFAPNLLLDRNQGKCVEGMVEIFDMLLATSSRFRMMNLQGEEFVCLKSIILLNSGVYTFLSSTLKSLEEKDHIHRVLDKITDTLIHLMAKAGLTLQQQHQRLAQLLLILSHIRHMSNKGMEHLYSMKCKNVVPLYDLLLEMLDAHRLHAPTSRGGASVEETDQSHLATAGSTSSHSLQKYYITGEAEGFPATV
Description: Binding affinity against human estrogen receptor alpha in competitive binding assay

Chain of Estrogen receptor beta (Q92731 whole entry): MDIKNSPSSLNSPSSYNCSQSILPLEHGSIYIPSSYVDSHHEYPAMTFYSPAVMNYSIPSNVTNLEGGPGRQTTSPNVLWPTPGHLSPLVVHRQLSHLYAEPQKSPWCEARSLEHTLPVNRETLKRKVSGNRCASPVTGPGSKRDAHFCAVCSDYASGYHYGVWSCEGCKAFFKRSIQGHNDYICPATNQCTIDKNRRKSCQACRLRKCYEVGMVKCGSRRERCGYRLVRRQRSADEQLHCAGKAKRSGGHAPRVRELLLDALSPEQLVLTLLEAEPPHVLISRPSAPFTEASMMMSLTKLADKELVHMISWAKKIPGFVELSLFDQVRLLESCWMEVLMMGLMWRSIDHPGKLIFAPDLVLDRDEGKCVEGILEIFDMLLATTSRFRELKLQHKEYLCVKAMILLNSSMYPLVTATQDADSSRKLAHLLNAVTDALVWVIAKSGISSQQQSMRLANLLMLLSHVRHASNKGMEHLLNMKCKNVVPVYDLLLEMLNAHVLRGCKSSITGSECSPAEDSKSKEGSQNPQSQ

| IC50 (Estrogen receptor beta) [nM] | IC50 (Estrogen receptor) [nM] | Structure (SMILES) |
| --- | --- | --- |
| 5640 | 3560 | C[C@@H]1C(=O)c2ccc(O)cc2O[C@@H]1c1ccc(OCCN2CCCCC2)cc1 |
| 1200 | 89 | CC(C)[C@@H]1C(=O)c2ccc(O)cc2O[C@@H]1c1ccc(OCCN2CCCCC2)cc1 |
| 1950 | 49 | O=C1c2ccc(O)cc2O[C@H](c2ccc(OCCN3CCCCC3)cc2)[C@H]1c1ccc(O)cc1 |
| 510 | 179 | O=C1c2ccccc2O[C@H](c2ccc(OCCN3CCCCC3)cc2)[C@@H]1c1ccc(O)cc1 |
| 2050 | 31 | O=C1c2ccc(O)cc2O[C@H](c2ccc(OCCN3CCCCC3)cc2)[C@@H]1c1ccc(O)cc1 |
| 207 | 652 | CCCc1cc(O)cc2c1C(=O)[C@@H](c1ccc(O)cc1)[C@@H](c1ccc(OCCN3CCCCC3)cc1)O2 |
| 8.9 | 6.7 | Oc1ccc([C@@H]2Cc3ccc(O)cc3O[C@@H]2c2ccc(OCCN3CCCCC3)cc2)cc1 |
| 10000 | 531 | O=C1c2ccc(O)cc2O[C@H](c2ccc(OCCN3CCCCC3)cc2)[C@@H]1c1ccccc1 |
| 1200 | 551 | C[C@@H]1C(=O)c2c(O)cc(O)cc2O[C@@H]1c1ccc(OCCN2CCCCC2)cc1 |
| 930 | 109 | CC(C)[C@H]1C(=O)c2ccc(O)cc2O[C@@H]1c1ccc(OCCN2CCCCC2)cc1 |
| 1360 | 149 | COc1cc(O)ccc1[C@@H]1C(=O)c2ccc(O)cc2O[C@@H]1c1ccc(OCCN2CCCCC2)cc1 |
| > 10000 | 413 | COc1cc([C@@H]2C(=O)c3ccc(O)cc3O[C@@H]2c2ccc(OCCN3CCCCC3)cc2)ccc1O |
| > 10000 | 1050 | Cc1cc([C@@H]2C(=O)c3ccc(O)cc3O[C@@H]2c2ccc(OCCN3CCCCC3)cc2)cc(C)c1O |
| 5390 | 105 | O=C1c2c(F)cc(O)cc2O[C@H](c2ccc(OCCN3CCCCC3)cc2)[C@@H]1c1ccc(O)cc1 |
| 8610 | 1040 | O/N=C1\c2ccc(O)cc2O[C@H](c2ccc(OCCN3CCCCC3)cc2)[C@@H]1c1ccc(O)cc1 |
| 152 | 68 | CCc1cc(O)cc2c1C(=O)[C@@H](c1ccc(O)cc1)[C@@H](c1ccc(OCCN3CCCCC3)cc1)O2 |
| 7000 | 929 | Oc1ccc([C@H]2[C@@H](c3ccc(OCCN4CCCCC4)cc3)Oc3cc(O)ccc3[C@@H]2O)cc1 |
| 454 | 71 | CCCCCc1cc(O)cc2c1C(=O)[C@@H](c1ccc(O)cc1)[C@@H](c1ccc(OCCN3CCCCC3)cc1)O2 |
| 1270 | 58 | O=C1c2c(Cl)cc(O)cc2O[C@H](c2ccc(OCCN3CCCCC3)cc2)[C@@H]1c1ccc(O)cc1 |
| > 10000 | 1410 | C[C@H]1C(=O)c2ccc(O)cc2O[C@@H]1c1ccc(OCCN2CCCCC2)cc1 |

| Structure (SMILES) | IC50 (Estrogen receptor beta) [nM] | IC50 (Estrogen receptor) [nM] |
| --- | --- | --- |
| Cc1cc(O)cc2c1C(=O)[C@@H](c1ccc(O)cc1)[C@@H](c1ccc(OCCN3CCCCC3)cc1)O2 | 546 | 14 |
| O=C1c2ccc(O)cc2O[C@H](c2ccc(O)cc2)[C@@H]1c1ccc(O)cc1 | 598 | 490 |
